Reference: PMC3954439 (Molecular cancer therapeutics, 2014)

Target: T1, ABCC10 (MRP7) (Homo sapiens, UniProt Q5T3U5)
T1 sequence (Q5T3U5 1-1492): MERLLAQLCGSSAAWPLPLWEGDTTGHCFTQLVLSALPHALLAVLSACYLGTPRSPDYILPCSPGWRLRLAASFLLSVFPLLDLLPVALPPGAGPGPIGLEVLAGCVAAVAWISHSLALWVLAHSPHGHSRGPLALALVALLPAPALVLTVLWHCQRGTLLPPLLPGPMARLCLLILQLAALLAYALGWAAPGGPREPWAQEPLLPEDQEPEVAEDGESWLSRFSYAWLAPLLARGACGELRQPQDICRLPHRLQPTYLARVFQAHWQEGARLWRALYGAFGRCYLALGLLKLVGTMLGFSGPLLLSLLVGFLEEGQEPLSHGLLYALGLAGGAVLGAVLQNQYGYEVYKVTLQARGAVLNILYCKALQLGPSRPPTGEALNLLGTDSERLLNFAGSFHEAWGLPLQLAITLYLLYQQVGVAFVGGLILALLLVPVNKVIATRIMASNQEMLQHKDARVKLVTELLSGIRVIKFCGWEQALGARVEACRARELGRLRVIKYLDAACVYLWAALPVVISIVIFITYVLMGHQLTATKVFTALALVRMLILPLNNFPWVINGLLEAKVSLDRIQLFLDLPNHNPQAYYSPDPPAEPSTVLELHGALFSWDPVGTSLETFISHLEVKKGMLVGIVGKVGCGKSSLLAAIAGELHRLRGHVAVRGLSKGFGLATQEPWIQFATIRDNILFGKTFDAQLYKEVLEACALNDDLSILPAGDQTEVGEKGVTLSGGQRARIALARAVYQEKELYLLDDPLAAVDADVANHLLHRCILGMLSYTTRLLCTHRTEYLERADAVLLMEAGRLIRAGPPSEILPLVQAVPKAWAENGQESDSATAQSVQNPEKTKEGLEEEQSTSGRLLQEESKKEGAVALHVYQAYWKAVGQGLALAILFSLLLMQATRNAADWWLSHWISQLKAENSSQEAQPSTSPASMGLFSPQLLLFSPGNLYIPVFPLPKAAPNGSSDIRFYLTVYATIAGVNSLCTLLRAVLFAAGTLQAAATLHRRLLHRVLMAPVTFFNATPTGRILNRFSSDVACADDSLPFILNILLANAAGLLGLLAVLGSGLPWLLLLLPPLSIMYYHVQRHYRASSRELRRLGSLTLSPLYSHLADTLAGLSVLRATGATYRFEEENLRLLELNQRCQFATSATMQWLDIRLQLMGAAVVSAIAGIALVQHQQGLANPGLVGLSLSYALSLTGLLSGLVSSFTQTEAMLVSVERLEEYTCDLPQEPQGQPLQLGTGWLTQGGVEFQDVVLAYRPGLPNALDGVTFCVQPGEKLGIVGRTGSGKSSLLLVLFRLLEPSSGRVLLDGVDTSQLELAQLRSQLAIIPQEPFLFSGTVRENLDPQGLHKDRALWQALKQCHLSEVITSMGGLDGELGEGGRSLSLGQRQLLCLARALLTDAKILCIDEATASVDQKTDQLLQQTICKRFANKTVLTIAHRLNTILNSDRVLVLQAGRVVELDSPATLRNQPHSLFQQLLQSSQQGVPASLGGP
Test: [3H]-paclitaxel efflux, HEK293/ABCC10 vs HEK293/pcDNA3.[…] cells
Format: cell-based
Conditions: labelled compound; 0.01 uM; 37 C; whole cells

CC(=O)O[C@H]1C(=O)[C@@]2(C)[C@H]([C@H](OC(=O)c3ccccc3)[C@]3(O)C[C@H](OC(=O)[C@H](O)[C@@H](NC(=O)c4ccccc4)c4ccccc4)C(C)=C1C3(C)C)[C@]1(OC(C)=O)CO[C@@H]1C[C@@H]2O [[3H]-paclitaxel]
[3H]-paclitaxel efflux, HEK293/ABCC10 vs HEK293/pcDNA3.1 cells: due to active efflux of the [^3H]-paclitaxel via ABCC10
